Molecular target: T1, Dopamine beta hydroxylase (Homo sapiens, UniProt P09172)
T1 construct: 125 μl of plasma; tissue Instituto Português do Sangue Transplantação; host or cells: human plasma from healthy donors
T1 sequence (P09172 40-617 limits assumed): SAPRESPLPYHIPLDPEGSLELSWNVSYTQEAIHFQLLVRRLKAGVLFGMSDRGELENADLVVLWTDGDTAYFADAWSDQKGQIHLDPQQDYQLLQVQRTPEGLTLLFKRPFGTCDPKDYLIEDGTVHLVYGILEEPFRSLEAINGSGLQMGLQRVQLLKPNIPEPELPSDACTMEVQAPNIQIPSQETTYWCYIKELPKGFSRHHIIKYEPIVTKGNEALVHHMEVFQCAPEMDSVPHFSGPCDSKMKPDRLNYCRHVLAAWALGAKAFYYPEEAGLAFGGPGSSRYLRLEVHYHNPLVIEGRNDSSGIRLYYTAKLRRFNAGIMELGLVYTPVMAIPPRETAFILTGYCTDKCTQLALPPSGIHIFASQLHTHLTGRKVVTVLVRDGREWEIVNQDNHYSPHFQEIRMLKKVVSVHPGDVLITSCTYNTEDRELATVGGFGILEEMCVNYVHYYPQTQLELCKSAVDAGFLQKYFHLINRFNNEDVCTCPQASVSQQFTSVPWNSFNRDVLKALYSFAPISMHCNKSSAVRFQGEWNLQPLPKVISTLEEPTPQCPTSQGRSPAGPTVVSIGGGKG
Test: Dopamine beta hydroxylase activity in human plasma
Assay type: biochemical
Conditions: for Plasma (0.01 μM), activity in % of control: inhibitor 0.01 μM; for Plasma (0.1 μM), activity in % of control: inhibitor 0.1 μM
In short: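 Octopamine production from tyramine over 45 min at 37° C, measured photometrically at 330 nm after SCX extraction and periodate oxidation against an octopamine standard curve, indicates plasma DβH activity. Compounds tested at final 10, 100 and 1000 nM in human plasma, pH 5.0 cofactor buffer, 10 min preincubation; results as % of control.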

| Compound | Plasma (0.01 μM), activity in % of control | Plasma (0.1 μM), activity in % of control | Plasma (1 μM), activity in % of control (inhibitor 1 μM) |
| --- | --- | --- | --- |
| Cn1c(CC(=O)O)c2n(c1=S)C[C@H](c1cc(Cl)ccc1F)C2 [Example 230, (S)-2-(6-(5-chloro-2-fluorophenyl)-2-methyl-3-thioxo-2,5,6,7-tetrahydro-3H-pyrrolo[1,2-c]imidazol-1-yl)acetic acid] | 82.0 % of control | 41.6 % of control |  |
| O=C(Cc1[nH]c(=S)n2c1C[C@@H](c1c(F)ccc(Br)c1F)C2)N1CCC[C@H]1CO [Example 100, 2-((S)-6-(3-bromo-2,6-difluorophenyl)-3-thioxo-2,5,6,7-tetrahydro-3H-pyrrolo[1,2-c]imidazol-1-yl)-1-((S)-2-(hydroxymethyl)pyrrolidin-1-yl)ethan-1-one] |  | 26.2 % of control | 2.1 % of control |
| Cn1c(CC(=O)NC[C@H]2CCCO2)c2n(c1=S)C[C@H](c1c(F)ccc(Cl)c1F)C2 [Example 337, 2-((S)-6-(3-chloro-2,6-difluorophenyl)-2-methyl-3-thioxo-2,5,6,7-tetrahydro-3H-pyrrolo[1,2-c]imidazol-1-yl)-N—(((R)-tetrahydrofuran-2-yl)methyl)acetamide] | 48.2 % of control | 9.4 % of control |  |
| Cn1c(CC(N)=O)c2n(c1=S)C[C@@]1(c3cc(Cl)ccc3F)C[C@@H]21 [Example 282, 2-((5aS,6aR)-5a-(5-chloro-2-fluorophenyl)-2-methyl-3-thioxo-2,3,5,5a,6,6a-hexahydrocyclopropa[3,4]pyrrolo[1,2-c]imidazol-1-yl)acetamide] | 99.6 % of control | 75.4 % of control |  |
| CCOC(=O)C(Cc1[nH]c(=S)n2c1C[C@H](c1c(F)c(F)cc(F)c1F)C2)C(=O)OCC [Example 200, (R)-diethyl 2-((6-(2,3,5,6-tetrafluorophenyl)-3-thioxo-3,5,6,7-tetrahydro-2H-pyrrolo[1,2-c]imidazol-1-yl)methyl)malonate] | 85.2 % of control | 66.4 % of control |  |
| CNCCc1[nH]c(=S)n2c1C[C@@H](c1c(F)ccc(Cl)c1F)C2.Cl [Example 193, (S)-6-(3-chloro-2,6-difluorophenyl)-1-(2-(methylamino)ethyl)-2,5,6,7-tetrahydro-3H-pyrrolo[1,2-c]imidazole-3-thione Hydrochloride] | 86.0 % of control | 46.3 % of control |  |
| Cn1c(C2(C(=O)N[C@@H]3CCOC3)CC2)c2n(c1=S)C[C@H](c1c(F)ccc(Br)c1F)C2 [Example 234, 1-((S)-6-(3-bromo-2,6-difluorophenyl)-2-methyl-3-thioxo-2,5,6,7-tetrahydro-3H-pyrrolo[1,2-c]imidazol-1-yl)-N—((R)-tetrahydrofuran-3-yl)cyclopropane-1-carboxamide] | 43.4 % of control | 12.2 % of control |  |
| O=C(Cc1[nH]c(=S)n2c1C[C@@H](c1c(F)ccc(Br)c1F)C2)N1CCS(=O)(=O)CC1 [Example 136, (S)-2-(6-(3-bromo-2,6-difluorophenyl)-3-thioxo-2,5,6,7-tetrahydro-3H-pyrrolo[1,2-c]imidazol-1-yl)-1-(1,1-dioxidothiomorpholino)ethan-1-one] | 44.3 % of control | 6.8 % of control |  |
| CN(C(=O)Cc1c2n(c(=S)n1C)C[C@@]1(c3cc(Cl)ccc3F)C[C@@H]21)C1CCOC1 (stereo partly drawn) [Example 441, 2-((5aS,6aR)-5a-(5-chloro-2-fluorophenyl)-2-methyl-3-thioxo-2,3,5,5a,6,6a-hexahydrocyclopropa[3,4]pyrrolo[1,2-c]imidazol-1-yl)-N-methyl-N-(tetrahydrofuran-3-yl)acetamide] | 72.8 % of control | 37.4 % of control |  |
| O=C(Cc1[nH]c(=S)n2c1C[C@H](c1c(F)ccc(F)c1F)C2)NC1CCOCC1 [Example 376, (R)—N-(tetrahydro-2H-pyran-4-yl)-2-(3-thioxo-6-(2,3,6-trifluorophenyl)-2,5,6,7-tetrahydro-3H-pyrrolo[1,2-c]imidazol-1-yl)acetamide] | 116.3 % of control | 59.3 % of control |  |
| O=C(Cc1[nH]c(=S)n2c1[C@@H]1C[C@]1(c1c(F)ccc(Cl)c1F)C2)NCc1cccnc1 [Example 151, 2-((5aS,6aR)-5a-(3-chloro-2,6-difluorophenyl)-3-thioxo-2,3,5,5a,6,6a-hexahydrocyclopropa[3,4]pyrrolo[1,2-c]imidazol-1-yl)-N-(pyridin-3-ylmethyl)acetamide] | 73.7 % of control | 20.2 % of control |  |
| Cn1c(CC(=O)NC2CCCCC2)c2n(c1=S)C[C@@]1(c3cc(Br)ccc3F)C[C@@H]21 [Example 294, 2-((5aS,6aR)-5a-(5-bromo-2-fluorophenyl)-2-methyl-3-thioxo-2,3,5,5a,6,6a-hexahydrocyclopropa[3,4]pyrrolo[1,2-c]imidazol-1-yl)-N-cyclohexylacetamide] | 39.7 % of control | 1.7 % of control |  |
| Cn1c(CC(=O)NC2CCCC2)c2n(c1=S)C[C@@]1(c3c(F)ccc(Cl)c3F)C[C@@H]21 [Example 271, 2-((5aS,6aR)-5a-(3-chloro-2,6-difluorophenyl)-2-methyl-3-thioxo-2,3,5,5a,6,6a-hexahydrocyclopropa[3,4]pyrrolo[1,2-c]imidazol-1-yl)-N-cyclopentylacetamide] | 62.1 % of control | 13.2 % of control |  |
| CC(C)NC(=O)Cc1c2n(c(=S)n1C)C[C@@]1(c3cc(Cl)ccc3F)C[C@@H]21 [Example 303, 2-((5aS,6aR)-5a-(5-chloro-2-fluorophenyl)-2-methyl-3-thioxo-2,3,5,5a,6,6a-hexahydrocyclopropa[3,4]pyrrolo[1,2-c]imidazol-1-yl)-N-isopropylacetamide] | 79.3 % of control | 34.7 % of control |  |
| CN(C(=O)Cc1[nH]c(=S)n2c1[C@@H]1C[C@]1(c1c(F)ccc(Cl)c1F)C2)C1CCOCC1 [Example 381, 2-((5aS,6aR)-5a-(3-chloro-2,6-difluorophenyl)-3-thioxo-2,3,5,5a,6,6a-hexahydrocyclopropa[3,4]pyrrolo[1,2-c]imidazol-1-yl)-N-methyl-N-(tetrahydro-2H-pyran-4-yl)acetamide] | 30.0 % of control | 3.2 % of control |  |
| CS(=O)(=O)C1CCN(C(=O)Cc2[nH]c(=S)n3c2C[C@@H](c2c(F)ccc(Br)c2F)C3)CC1 [Example 123, (S)-2-(6-(3-bromo-2,6-difluorophenyl)-3-thioxo-2,5,6,7-tetrahydro-3H-pyrrolo[1,2-c]imidazol-1-yl)-1-(4-(methylsulfonyl)piperidin-1-yl)ethan-1-one] | 51.9 % of control | 6.3 % of control |  |
| CC(C)NCCCc1[nH]c(=S)n2c1C[C@H](c1c(F)ccc(F)c1F)C2 [Example 472, (R)-1-(3-(isopropylamino)propyl)-6-(2,3,6-trifluorophenyl)-2,5,6,7-tetrahydro-3H-pyrrolo[1,2-c]imidazole-3-thione hydrofluoride] | 63.3 % of control | 14.2 % of control |  |
| CN(C(=O)Cc1c2n(c(=S)n1C)C[C@H](c1c(F)ccc(Br)c1F)C2)C1COC1 [Example 454, (S)-2-(6-(3-bromo-2,6-difluorophenyl)-2-methyl-3-thioxo-2,5,6,7-tetrahydro-3H-pyrrolo[1,2-c]imidazol-1-yl)-N-methyl-N-(oxetan-3-yl)acetamide] | 56.8 % of control | 8.1 % of control |  |
| F.Fc1ccc(Br)cc1[C@]12C[C@H]1c1c(CCNC3CC3)[nH]c(=S)n1C2 [Example 187, (5aS,6aR)-5a-(5-bromo-2-fluorophenyl)-1-(2-(cyclopropylamino)ethyl)-5,5a,6,6a-tetrahydrocyclopropa[3,4]pyrrolo[1,2-c]imidazole-3(2H)-thione hydrofluoride] | 72.6 % of control | 21.6 % of control |  |
